The values that follow are results of earlier work, collected in US20070243260A1, “Treatment of Childhood Asthma” (priority 2004, published 2007).

The structures appear in SMILES notation.

Data set [1] deals with asthma. The note with it: single administration, metered-dose aerosol.
For data set [2], the system named is asthma. The note with it: inhaled; up to 8 hours appears to be maximal.

Consider `C[N+]1(C)CCC(OC(=O)C(O)(c2ccccc2)C2CCCC2)C1` (centres unmarked) [glycopyrrolate], for which the Period of bronchodilation in data set [1] was 12 h. Further, in data set [2], the “Duration of effective treatment” value is listed as “up to 12 hours”.
